Laboratory results published in US20120058133A1, “INHIBITION OF TRNA SYNTHETASES AND THERAPEUTIC APPLICATIONS THEREOF” (President and Fellows of Harvard College, priority 2009, published 2012).
“Also recorded” adds a separate entry of the source.

Key:
EPRS = assay: Prolyl-tRNA charging by purified EPRS; type: biochemical, rat
Source text: FIG. 23E is a graph showing that HF inhibits purified EPRS activity. EPRS was purified from rat liver and assayed for prolyl-tRNA charging activity as previously described (Ting, S. M., Bogner, P. & Dignam, J. D. Isolation of prolyl-tRNA synthetase as a free form and as a form associated with glutamyl-tRNA synthetase. J Biol Chem 267, 17701-17709, (1992)). Data are representative of three separate experiments.
The effects of HF on prolyl-tRNA charging was examined. RRL were supplemented with ^14C-Pro or ^35S-Met in the presence or absence of HF, and total tRNA was isolated (FIG. 23D).

[1] = tested on: GCN2 phosphorylation / AAR pathway; assay: AAR pathway activation in MEFs (GCN2, eIF2a phosphorylation, CHOP); type: cell-based, mouse
Protocol: FIG. 24. Activation of the AAR in cells by HF/FF occurs through inhibition of proline utilization. FIG. 24A is a gel showing HF-induction of the AAR pathway is reversed by proline. MEFs were treated with the indicated concentration of HF or FF in the presence or absence of 2 mM Proline for 2 hours (left) or treated with 1 μM borrelidin in the presence or absence of 2 mM Threonine for 2 hours (right). Cells were lysed and assessed by anti-pGCN2 or anti-GCN2 Western blot. Data are representative of three separate experiments.
FIG. 24B is a gel showing HF induction of eIF2a phosphorylation and CHOP expression is GCN2 dependent. Wild Type or GCN2−/− MEFs were treated with 50 nM HF in the presence or absence of 2 mM proline. Cells were lysed at 2 hours post-HF addition (peIF2a) or 6 hours post-HF addition (CHOP) and analyzed for phosphoprotein or total protein levels by Western blot.

[2] = tested on: adjuvant-driven EAE in wild-type B6 mice; assay: Adjuvant-driven EAE (MOG33-55 immunization); type: in vivo, mouse
Source text: The ability of systemic HF treatment to block IL-17 expression and associated autoimmune inflammation in vivo was examined using two distinct models of experimental autoimmune encephalomyelitis (EAE). […] The second model, a passive model of EAE induction, is initiated by the transfer of myelin proteolipid protein (PLP)-reactive T cells into lymphopenic hosts.
Adjuvant-driven EAE was induced in 8 week-old wild-type B6 mice purchased from Charles River laboratories (Kingston, N.Y.) by subcutaneous injection of […] peptide emulsified in Incomplete Freund's Adjuvant (IFA) plus 5 mg/ml heat-killed M. tuburculosis (BD Biosciences) in both dorsal flanks as described in Veldhoen et al. (Nat. Immunol. 7(11):1151-1156, 2006).
Mice were injected daily with HF (2 μg/mouse) or vehicle control (DMSO) i.p. Clinical signs of EAE were assessed according to the following score: 0, no signs of disease; 1, flaccid tail; 2, weak gait/hind limb paresis; 3, hind limb paralysis; 4, tetraplegia; 5, moribund. Cytokine production during EAE was determined either in peripheral T cells isolated from spleen or lymph nodes of mice prior to disease onset (day 6-10) or in mononuclear cells isolated from the brain and spinal cords of mice with severe disease (clinical score ≧2) between days 15-20. Briefly, splenocytes were stained for intracellular cytokines following erythrocyte lysis with ammonium chloride buffer. T cells were isolated from brain and spinal cords of mice with active EAE following perfusion with cold PBS. Minced CNS tissue was digested with liberase C1 (0.33 mg/ml, Roche Diagnostics) or collagenase D (10 mg/ml, Roche Diagnostics) at 37° C. for 30-45 minutes. Cell suspensions were passed through 70 μm cell strainers (VWR) and fractionated by 70%/30% Percoll gradient centrifugation. Mononuclear cells were collected from the interphase, washed and used for intracellular cytokine analysis.

[3] = tested on: amino acid starvation response in splenocytes; assay: In vivo AAR activation in splenocytes of HF-injected mice; design: species or system mouse; settings: i.p. injection, 6 hours
Protocol: FIG. 20F, left panel, depicts western blot analysis of protein from cells of wild-type mice injected i.p. with vehicle (DMSO) or […] HF. Spleens were harvested 6 hours post injection, red blood cells were removed by NH4Cl lysis buffer and immunoblotting for phosphorylated or total eIF2a was performed on whole cell extracts. FIG. 20F, right panel is a graph depicting levels of AAR-associated gene expression (Asns, Gpt2, eIF4Ebp1) analyzed by quantitative real-time PCR using cDNA from splenocytes of mice treated with DMSO or HF as above. Expression of AAR-associated transcripts were normalized to Hprt levels and data are presented as mean relative expression from duplicate samples ±SD. All data represent 2-3 similar experiments.

luciferase = assay: Standard luciferase assay; type: biochemical; settings: not shown
EAE and CIA = settings: mouse, in vivo; cited from earlier work
[4] = 2 μg HF daily, ˜0.1 mg/kg, i.p.

Structure (SMILES): O=C(CC1NCCCC1O)Cn1cnc2cc(Br)c(Cl)cc2c1=O (racemic) [HF, halofuginone]
- reconstituted prolyl-tRNA charging reaction with purified EPRS (EPRS): inhibited this reaction
- eIF2-alpha phosphorylation and CHOP induction in wild type vs GCN2−/− fibroblasts ([1]; 50 nM HF): absent in GCN2−/− fibroblasts
- reversal of GCN2 phosphorylation by cognate amino acid ([1]; 2 mM proline or 2 mM threonine): abrogated by the addition of 2 mM proline
- GCN2 phosphorylation in fibroblasts ([1]; 2 hours, borrelidin 1 μM): Stimulation of GCN2 phosphorylation
- CD4+ T cell infiltrates into the CNS ([2]; 2 μg HF daily i.p.): overall reduction
- IFNγ expression in the same T cell populations ([2]; 2 μg HF daily i.p.): did not affect IFNγ expression; also recorded: had no effect on the number of IFNγ T-cells
- T cell-derived IL-17 expression in lymph nodes and CNS tissue ([2]; 2 μg HF daily i.p.): reduction; also recorded: selectively reduced the number of IL-17 expressing T cells
- frequency of disease onset [2, 4]: significantly reduced
- severity of adjuvant-driven EAE disease [2, 4]: significantly reduced
- clinical score of mice analysed ([2]; 17 days after immunization with MOG): 0
- clinical score of mice analysed ([2]; day 18): 0
- eIF2α phosphorylation and AAR-associated transcripts in splenocytes ex vivo [3]: increased eIF2α phosphorylation and expression of AAR-associated transcripts
- direct effect on luciferase activity (luciferase): no direct effect
- activity in EAE and CIA models (EAE and CIA): active in these models
